The source made the active and inactive calls. The calls are words filed in the database; no cut-off is given here.
What was measured:
[1] = test system: Elatine triandra; test: Post-emergence herbicidal activity against Elatine triandra assessed as bleaching of stem/leaf parts; type: functional, organism-based; further: test concentration or dose not given here
[2] = test system: Ammannia multiflora; test: Post-emergence herbicidal activity against Ammannia multiflora assessed as bleaching of stem/leaf parts; type: functional, organism-based
[3] = test system: Rotala indica; test: Post-emergence herbicidal activity against Rotala indica assessed as bleaching of stem/leaf parts; type: functional, organism-based
[4] = test system: Lindernia procumbens; test: Post-emergence herbicidal activity against Lindernia procumbens assessed as bleaching of stem/leaf parts; type: functional, organism-based; further: test concentration or dose not given here
[5] = test system: Schoenoplectiella juncoides; test: Post-emergence herbicidal activity against Schoenoplectiella juncoides assessed as bleaching of stem/leaf parts; type: functional, organism-based; further: test concentration or dose not given here
[6] = test system: Ammannia multiflora; test: Pre-emergence herbicidal activity against Ammannia multiflora at 500 g a.i/ha measured after 14 days; type: functional, organism-based
[7] = test system: Elatine triandra; test: Pre-emergence herbicidal activity against Elatine triandra at 100 g a.i/ha measured after 14 days; type: functional, organism-based
[8] = test system: Elatine triandra; test: Pre-emergence herbicidal activity against Elatine triandra at 500 g a.i/ha measured after 14 days; type: functional, organism-based
[9] = test system: Rotala indica; test: Pre-emergence herbicidal activity against Rotala indica at 100 g a.i/ha measured after 14 days; type: functional, organism-based
[10] = test system: Oryza sativa; test: Phytotoxicity against Oryza sativa cv. Koshihikari (rice) at 100 g a.i/ha measured after 14 days; type: organism-based; details: in vivo, 336 h
[11] = test system: Oryza sativa; test: Phytotoxicity against Oryza sativa cv. Koshihikari (rice) at 33 g a.i/ha measured after 14 days; type: organism-based; details: in vivo, 336 h
[12] = test system: Oryza sativa; test: Phytotoxicity against Oryza sativa cv. Koshihikari (rice) at 500 g a.i/ha measured after 14 days; type: organism-based; details: in vivo, 336 h
[13] = test system: Ammannia multiflora; test: Pre-emergence herbicidal activity against Ammannia multiflora at 33 g a.i/ha measured after 14 days; type: functional, organism-based
[14] = test system: Ammannia multiflora; test: Pre-emergence herbicidal activity against Ammannia multiflora at 100 g a.i/ha measured after 14 days; type: functional, organism-based
[15] = test system: Elatine triandra; test: Pre-emergence herbicidal activity against Elatine triandra at 33 g a.i/ha measured after 14 days; type: functional, organism-based
[16] = test system: Rotala indica; test: Pre-emergence herbicidal activity against Rotala indica at 33 g a.i/ha measured after 14 days; type: functional, organism-based
[17] = test system: Rotala indica; test: Pre-emergence herbicidal activity against Rotala indica at 500 g a.i/ha measured after 14 days; type: functional, organism-based
[18] = test system: Lindernia procumbens; test: Pre-emergence herbicidal activity against Lindernia procumbens at 33 g a.i/ha measured after 14 days; type: functional, organism-based
[19] = test system: Lindernia procumbens; test: Pre-emergence herbicidal activity against Lindernia procumbens at 100 g a.i/ha measured after 14 days; type: functional, organism-based
[20] = test system: Schoenoplectiella juncoides; test: Pre-emergence herbicidal activity against Schoenoplectiella juncoides at 33 g a.i/ha measured after 14 days; type: functional, organism-based
[21] = test system: Lindernia procumbens; test: Pre-emergence herbicidal activity against Lindernia procumbens at 500 g a.i/ha measured after 14 days; type: functional, organism-based
[22] = test system: Schoenoplectiella juncoides; test: Pre-emergence herbicidal activity against Schoenoplectiella juncoides at 100 g a.i/ha measured after 14 days; type: functional, organism-based
[23] = test system: Schoenoplectiella juncoides; test: Pre-emergence herbicidal activity against Schoenoplectiella juncoides at 500 g a.i/ha measured after 14 days; type: functional, organism-based
[24] = test system: Pontederia vaginalis; test: Pre-emergence herbicidal activity against Monochoria vaginalis at 33 g a.i/ha measured after 14 days; type: functional, organism-based
[25] = test system: Pontederia vaginalis; test: Pre-emergence herbicidal activity against Monochoria vaginalis at 500 g a.i/ha measured after 14 days; type: functional, organism-based
[26] = test system: Pontederia vaginalis; test: Pre-emergence herbicidal activity against Monochoria vaginalis at 100 g a.i/ha measured after 14 days; type: functional, organism-based
[27] = test system: Cyperus difformis; test: Pre-emergence herbicidal activity against Cyperus difformis at 33 g a.i/ha measured after 14 days; type: functional, organism-based
[28] = test system: Cyperus difformis; test: Pre-emergence herbicidal activity against Cyperus difformis at 100 g a.i/ha measured after 14 days; type: functional, organism-based
[29] = test system: Cyperus difformis; test: Pre-emergence herbicidal activity against Cyperus difformis at 500 g a.i/ha measured after 14 days; type: functional, organism-based
[30] = test system: Echinochloa oryzicola; test: Pre-emergence herbicidal activity against Echinochloa oryzicola at 100 g a.i/ha measured after 14 days; type: functional, organism-based
[31] = test system: Echinochloa oryzicola; test: Pre-emergence herbicidal activity against Echinochloa oryzicola at 33 g a.i/ha measured after 14 days; type: functional, organism-based
[32] = test system: Echinochloa oryzicola; test: Pre-emergence herbicidal activity against Echinochloa oryzicola at 500 g a.i/ha measured after 14 days; type: functional, organism-based
[33] = test system: Lindernia procumbens; test: Pre-emergence herbicidal activity against Lindernia procumbens assessed as bleaching of stem/leaf parts; type: functional, organism-based
[34] = test system: Pontederia vaginalis; test: Pre-emergence herbicidal activity against Monochoria vaginalis assessed as bleaching of stem/leaf parts; type: functional, organism-based
[35] = test system: Schoenoplectiella juncoides; test: Pre-emergence herbicidal activity against Schoenoplectiella juncoides assessed as bleaching of stem/leaf parts; type: functional, organism-based
[36] = test system: Cyperus difformis; test: Pre-emergence herbicidal activity against Cyperus difformis assessed as bleaching of stem/leaf parts; type: functional, organism-based
[37] = test system: Echinochloa oryzicola; test: Pre-emergence herbicidal activity against Echinochloa oryzicola assessed as bleaching of stem/leaf parts; type: functional, organism-based
[38] = test system: Cyperus difformis; test: Post-emergence herbicidal activity against Cyperus difformis assessed as bleaching of stem/leaf parts; type: functional, organism-based; further: test concentration or dose not given here
[39] = test system: Pontederia vaginalis; test: Post-emergence herbicidal activity against Monochoria vaginalis assessed as bleaching of stem/leaf parts; type: functional, organism-based
[40] = test system: Echinochloa oryzicola; test: Post-emergence herbicidal activity against Echinochloa oryzicola assessed as bleaching of stem/leaf parts; type: functional, organism-based
[41] = test system: Ammannia multiflora; test: Pre-emergence herbicidal activity against Ammannia multiflora assessed as bleaching of stem/leaf parts; type: functional, organism-based
[42] = test system: Elatine triandra; test: Pre-emergence herbicidal activity against Elatine triandra assessed as bleaching of stem/leaf parts; type: functional, organism-based
[43] = test system: Rotala indica; test: Pre-emergence herbicidal activity against Rotala indica assessed as bleaching of stem/leaf parts; type: functional, organism-based
[44] = test system: Oryza sativa; test: Phytotoxicity against Oryza sativa cv. Koshihikari (rice) at 10 g a.i/ha measured after 14 days; type: organism-based; details: in vivo, 336 h
[45] = test system: Ammannia multiflora; test: Pre-emergence herbicidal activity against Ammannia multiflora at 10 g a.i/ha measured after 14 days; type: functional, organism-based
[46] = test system: Rotala indica; test: Pre-emergence herbicidal activity against Rotala indica at 10 g a.i/ha measured after 14 days; type: functional, organism-based
[47] = test system: Elatine triandra; test: Pre-emergence herbicidal activity against Elatine triandra at 10 g a.i/ha measured after 14 days; type: functional, organism-based
[48] = test system: Lindernia procumbens; test: Pre-emergence herbicidal activity against Lindernia procumbens at 10 g a.i/ha measured after 14 days; type: functional, organism-based
[49] = test system: Schoenoplectiella juncoides; test: Pre-emergence herbicidal activity against Schoenoplectiella juncoides at 10 g a.i/ha measured after 14 days; type: functional, organism-based
[50] = test system: Pontederia vaginalis; test: Pre-emergence herbicidal activity against Monochoria vaginalis at 1 0 g a.i/ha measured after 14 days; type: functional, organism-based
[51] = test system: Cyperus difformis; test: Pre-emergence herbicidal activity against Cyperus difformis at 10 g a.i/ha measured after 14 days; type: functional, organism-based
[52] = test system: Echinochloa oryzicola; test: Pre-emergence herbicidal activity against Echinochloa oryzicola at 10 g a.i/ha measured after 14 days; type: functional, organism-based

Cn1cc(C(=O)Nc2ccccc2)c(Oc2cccc(C(F)(F)F)c2)n1
Activity [1]: Active | Activity [2]: Active | Activity [3]: Active | Activity [4]: Active | Activity [5]: Active | Activity [6]: Active | Activity [7]: Active | Activity [8]: Active | Activity [9]: Active | Activity [10]: Non-toxic | Activity [11]: Non-toxic | Activity [12]: Toxic | Activity [13]: Active | Activity [14]: Active | Activity [15]: Active | Activity [16]: Active | Activity [17]: Active | Activity [18]: Active | Activity [19]: Active | Activity [20]: inactive | Activity [21]: Active | Activity [22]: Active | Activity [23]: Active | Activity [24]: Active | Activity [25]: Active | Activity [26]: Active | Activity [27]: Active | Activity [28]: Active | Activity [29]: Active | Activity [30]: Active | Activity [31]: inactive | Activity [32]: Active | Activity [33]: Active | Activity [34]: Active | Activity [35]: Active | Activity [36]: Active | Activity [37]: Active | Activity [38]: Active | Activity [39]: Active | Activity [40]: Active | Activity [41]: Active | Activity [42]: Active | Activity [43]: Active

Cn1cc(C(=O)Nc2ccc(F)cc2F)c(Oc2cccc(C(F)(F)F)c2)n1
Activity [1]: Active | Activity [2]: Active | Activity [3]: Active | Activity [4]: Active | Activity [5]: Active | Activity [11]: Non-toxic | Activity [13]: Active | Activity [15]: Active | Activity [16]: Active | Activity [18]: Active | Activity [20]: Active | Activity [24]: Active | Activity [27]: Active | Activity [31]: Active | Activity [33]: Active | Activity [34]: Active | Activity [35]: Active | Activity [36]: Active | Activity [37]: Active | Activity [44]: Non-toxic | Activity [45]: inactive | Activity [46]: inactive | Activity [47]: inactive | Activity [48]: inactive | Activity [49]: inactive | Activity [50]: inactive | Activity [51]: inactive | Activity [52]: inactive | Activity [38]: Active | Activity [39]: Active | Activity [40]: Active | Activity [41]: Active | Activity [42]: Active | Activity [43]: Active

Cn1cc(C(=O)Nc2ccc(F)cc2F)c(Oc2ccc(Cl)c(C(F)(F)F)c2)n1
Activity [1]: Active | Activity [2]: Active | Activity [3]: Active | Activity [4]: Active | Activity [5]: Active | Activity [11]: Non-toxic | Activity [13]: Active | Activity [15]: Active | Activity [16]: Active | Activity [18]: Active | Activity [20]: Active | Activity [24]: Active | Activity [27]: Active | Activity [31]: Active | Activity [33]: Active | Activity [34]: Active | Activity [35]: Active | Activity [36]: Active | Activity [37]: Active | Activity [44]: Non-toxic | Activity [45]: Active | Activity [46]: Active | Activity [47]: Active | Activity [48]: Active | Activity [49]: Active | Activity [50]: Active | Activity [51]: Active | Activity [52]: inactive | Activity [38]: Active | Activity [39]: Active | Activity [40]: Active | Activity [41]: Active | Activity [42]: Active | Activity [43]: Active

CCn1cc(C(=O)Nc2ccc(F)cc2F)c(Oc2cccc(C(F)(F)F)c2)n1
Activity [1]: Active | Activity [2]: Active | Activity [3]: Active | Activity [4]: Active | Activity [5]: Active | Activity [11]: Non-toxic | Activity [13]: Active | Activity [15]: Active | Activity [16]: Active | Activity [18]: Active | Activity [20]: Active | Activity [24]: Active | Activity [27]: Active | Activity [31]: Active | Activity [33]: Active | Activity [34]: Active | Activity [35]: Active | Activity [36]: Active | Activity [37]: Active | Activity [44]: Non-toxic | Activity [45]: Active | Activity [46]: Active | Activity [47]: Active | Activity [48]: Active | Activity [49]: inactive | Activity [50]: Active | Activity [51]: Active | Activity [52]: Active | Activity [38]: Active | Activity [39]: Active | Activity [40]: Active | Activity [41]: Active | Activity [42]: Active | Activity [43]: Active

Reference: ChEMBL document CHEMBL3046607, “Synthesis and Herbicidal Activity of New 1-Alkyl-3-aryloxypyrazole-4-carboxamide Derivatives” (J Pestic Sci, 2004)
